Measurements from the NIST ThermoML archive (doi:10.1016/j.tca.2012.07.014).
Numbers after ± are expanded uncertainties.

Conditions: Crystal; visual observation

For `CO[C@@]12[C@H](COC(N)=O)C3=C(C(=O)C(C)=C(N)C3=O)N1C[C@@H]1N[C@@H]12` [ametycine], the Normal melting temperature was 360.00 ± 1 °C.
